# From patent US20250204541A1, “GAS PHASE TREATMENT OF PRODUCE” (priority 2022, published 2025)
# Experiments:
# [1] = test system: Botrytis cinerea (Bc); assay: Antifungal activity of AITC vapor against Botrytis cinerea in strawberries; type: in vivo; details: for strawberries infected: Example 14, ambient temperature, day 6
# Procedure: Example 13. The antifungal activity of AITC vapor against Bc in strawberries was tested. All samples were wounded by making a 3 mm deep puncture in the skin. Samples were infected by dispensing 1000 Bc spores suspended in 10 μL of water in the wound. Samples were then incubated at ambient temperature, imaged, and assessed for mold over the following 3 days. The test group consisted of strawberries that were: uninfected and untreated; infected and untreated; and exposed for 30 minutes to the vapor of 125 μL AITC dispensed on Whatman filter paper. […] The infection rates in the initially uninfected sample indicate that the step involving the initial infection of the wound by dispensing the Bc spores may not be necessary to promote infection in the test groups.
# Example 14. The antifungal activity of a range of AITC vapor concentrations against Bc in strawberries was tested. Samples were treated by exposure for 30 minutes to the vapor of a range of volumes of AITC disposed on a filter paper disc, then incubated at ambient temperature, imaged, and assessed for mold over the following 6 days. Test groups consisted of strawberries that were untreated and strawberries exposed to the vapor of 62.5 μL, 125 μL, 250 μL, and 500 μL of AITC. […] On day 6, 83% of the untreated control strawberries were infected, 100% of the 62.5 μL AITC dose strawberries were infected, 13% of the 125 μL AITC dose strawberries were infected, and 0% of the 250 and 500 μL AITC dose strawberries were infected. For strawberries incubated at room temperature, all of the AITC doses above 62.5 μL were effective at preventing mold, with doses above 125 μL substantially eliminating mold.
# Example 15. The antifungal activity of AITC vapor under different exposure conditions against Bc in strawberries was tested. Test groups consisted of strawberries that were untreated and treated by exposure for 30 minutes to the vapor of 125 μL of AITC disposed on a filter paper disc. Test groups were then incubated in either open or closed containers at 4° C., imaged, and assessed for mold over the following 14 days. […] All samples were free of mold through 7 days. On day 12, 16.7% of the open air controls were infected, 29.2% of closed container controls were infected, and 0% of the AITC treated were infected. On day 14, 33.3% of the open air controls were infected, 41.7% of closed container controls were infected, 0% of the open air AITC treated were infected, and 4.2% of the closed container AITC treated were infected. For strawberries incubated at 4° C., AITC treatment was effective in reducing the incidence of mold over a two week period. While ⅓ of the open air untreated samples were infected, none of the open air AITC-treated were infected. Over 40% of the closed container controls were infected. A single strawberry was infected in the closed container AITC-treated test group.
# Example 16. The antifungal activity of AITC vapor against Bc in strawberries treated with a coating agent (95 wt % glyceryl monostearate and 5 wt % sodium stearate) and exposed to vapor in clamshells was tested. Test groups consisted of strawberries that were: untreated; dipped in 40 g/L solution of the coating agent; exposed for 30 minutes to the vapor of 125 μL of AITC disposed on a filter paper disc; and dipped in 40 g/L solution of the coating agent and exposed for 30 minutes to the vapor of 125 μL of AITC disposed on a filter paper disc. Samples were treated, incubated at ambient temperature, imaged, and assessed for mold over the following 4 days. […] On day 3, 52.8% of the controls were infected, 42.1% of the coating agent were infected, 26.3% of the AITC were infected, and 9.3% of the coating agent+AITC were infected. On day 4, 88.9% of the controls were infected, 76.3% of the coating agent were infected, 71% of the AITC were infected, and 34.9% of the coating agent+AITC were infected. […] Bowl dipping in the coating solution also presented challenges for drying around the calyx.
# Example 17. […]
# [2] = test system: Colletotrichum gloeosporioides (Cg); assay: Antifungal activity of vapor against Colletotrichum gloeosporioides in avocados; type: in vivo; details: Example 22, 30 minutes vapor of 62.5-500 μL on filter paper disc, assessed on day 5
smiles,measurement,setting,value
"C=CCN=C=S [AITC, allyl isothiocyanate]",samples showing visible mold,"[1]; Example 13, strawberries, 30 minutes vapor of 125 μL, after 24 hours",no mold was visible
same,fraction of samples showing visible mold,"[1]; Example 13, strawberries, 30 minutes vapor of 125 μL, after 48 hours",⅛
same,fraction of samples showing visible mold,"[1]; Example 13, strawberries, 30 minutes vapor of 125 μL, after 72 hours",¼
same,strawberries infected,"[1]; 62.5 μL dose, 30 minutes",100%
same,strawberries infected,"[1]; 125 μL dose, 30 minutes",13%
same,strawberries infected,"[1]; 250 μL dose, 30 minutes",0%
same,strawberries infected,"[1]; 500 μL dose, 30 minutes",0%
same,infected,"[1]; Example 15, strawberries, 125 μL, 30 minutes, 4° C., closed container, day 14",4.2%
same,infected,"[1]; Example 15, strawberries, 125 μL, 30 minutes, 4° C., open air, day 14",0%
same,infected,"[1]; Example 15, strawberries, 125 μL, 30 minutes, 4° C., open or closed containers, day 12",0%
same,mold,"[1]; Example 15, strawberries, 125 μL, 30 minutes, incubated at 4° C., through 7 days",free of mold
same,infected,"[1]; Example 16, strawberries in clamshells, coating agent 40 g/L dip, AITC 125 μL 30 minutes, ambient, day 3",26.3%
same,infected,"[1]; Example 16, strawberries in clamshells, coating agent 40 g/L dip, AITC 125 μL 30 minutes, ambient, day 4",71%
same,incidence of Cg mold,[2],"reduced the incidence of Cg mold compared to the untreated samples, the samples treated with coating agent, and the prochloraz treated sample"
